According to PubChem BioAssay (NCI):
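A five-concentration, 48-hour dose response in 96-well plates underlies each endpoint, interpolated linearly between surrounding concentrations. Abbreviation: GI50, concentration required for 50% inhibition of growth. The concentration for full growth arrest is given as TGI.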

What was measured:
Assay in all cases: growth of human tumour cells (NCI), 48 h
[1] = test system: NCI-H226 lung
[2] = test system: NCI-H23 lung
[3] = test system: NCI-H460 lung
[4] = test system: NCI-H522 lung
[5] = test system: NCI/ADR-RES ovarian
[6] = test system: OVCAR-3 ovarian
[7] = test system: OVCAR-4 ovarian
[8] = test system: OVCAR-5 ovarian
[9] = test system: OVCAR-8 ovarian
[10] = test system: PC-3 prostate
[11] = test system: RPMI-8226 leukemia
[12] = test system: RXF 393 renal
[13] = test system: SF-268 CNS
[14] = test system: SF-295 CNS
[15] = test system: SK-MEL-2 melanoma
[16] = test system: SK-MEL-28 melanoma
[17] = test system: SK-MEL-5 melanoma
[18] = test system: SK-OV-3 ovarian
[19] = test system: SN12C renal
[20] = test system: SNB-19 CNS
[21] = test system: SNB-75 CNS
[22] = test system: SW-620 colon
[23] = test system: T-47D breast
[24] = test system: TK-10 renal
[25] = test system: U251 CNS
[26] = test system: UACC-257 melanoma
[27] = test system: UACC-62 melanoma
[28] = test system: UO-31 renal

Compound: O=C1/C(=C/c2ccccc2Br)COc2ccc(O)c(O)c21
- GI50 [1]: 2750 nM
- TGI [1]: 8190 nM
- GI50 [2]: 1830 nM
- TGI [2]: 4170 nM
- GI50 [3]: 2130 nM
- TGI [3]: 5640 nM
- GI50 [4]: 196 nM
- TGI [4]: 494 nM
- GI50 [5]: 1880 nM
- TGI [5]: 11600 nM
- GI50 [6]: 557 nM
- TGI [6]: 1830 nM
- GI50 [7]: 2350 nM
- TGI [7]: 10200 nM
- GI50 [8]: 2150 nM
- TGI [8]: 4390 nM
- GI50 [9]: 1310 nM
- TGI [9]: 12200 nM
- GI50 [10]: 1040 nM
- TGI [10]: 9890 nM
- GI50 [11]: 261 nM
- TGI [11]: 682 nM
- GI50 [12]: 1660 nM
- TGI [12]: 3220 nM
- GI50 [13]: 1600 nM
- TGI [13]: 4230 nM
- GI50 [14]: 2960 nM
- TGI [14]: 8040 nM
- GI50 [15]: 1970 nM
- TGI [15]: 4820 nM
- GI50 [16]: 1940 nM
- TGI [16]: 4420 nM
- GI50 [17]: 1630 nM
- TGI [17]: 3010 nM
- GI50 [18]: 3950 nM
- TGI [18]: 15000 nM
- GI50 [19]: 937 nM
- TGI [19]: 3620 nM
- GI50 [20]: 1690 nM
- TGI [20]: 3920 nM
- GI50 [21]: 1470 nM
- TGI [21]: 6920 nM
- GI50 [22]: 1340 nM
- TGI [22]: 4440 nM
- GI50 [23]: 2250 nM
- TGI [23]: 11400 nM
- GI50 [24]: 2010 nM
- TGI [24]: 4090 nM
- GI50 [25]: 1090 nM
- TGI [25]: 2330 nM
- GI50 [26]: 1530 nM
- TGI [26]: 5170 nM
- GI50 [27]: 1550 nM
- TGI [27]: 3290 nM
- GI50 [28]: 804 nM
- TGI [28]: 2070 nM
